According to patent US12384751B2, “Allosteric activators of the ALPHA1A-adrenergic receptor” (The Cleveland Clinic Foundation, priority 2019, dated 2025):
“Also recorded” adds a separate entry of the source.

Columns and labels:
[1] = system: 3×TG Alzheimer's Disease (AD) mouse model; assay: Smart Cage locomotor activity in AD mice; type: in vivo; conditions: 48 hours
[2] = system: 3×TG Alzheimer's Disease (AD) mouse model; assay: Shortened Barnes Maze in 3×TG AD mice; type: in vivo
Method: (§1) AD mice were first randomized and sorted into control or treatment groups. […] 14 AD mice from each treatment group received Compound 3 in the drinking water (2.611 mg/kg/bw) to deliver a daily dose near the peak potentiation of the cAMP response in the brain at 10^−8M based upon the PAM assay and pharmacokinetics. This was achieved by adding Compound 3 to the drinking water at 32 uM, assuming the mice drink 6 ml/day, with only 10% of bioavailable drug reaching the brain. The drug was administered in the drinking water for 10 months, starting at age 2 months, then subjected to either different cognitive behavioral tests or electrophysiology at age 12 months to maximize the manifestations of AD symptoms in these mice. Mice are maintained on the drug for the duration of the studies and blinded to the operator.
Barnes Maze. The Barnes maze is used to assess spatial learning and memory and consists of a white, flat, circular platform elevated above ground with 40 holes, under which one escape box is located. Three visual cues are placed surrounding the maze and their locations in relation to the escape box and remain constant. Two floodlights and four fans above the maze provide aversion. […] At the start of each trial, a mouse is placed in the center of the maze under a holding chamber for 30 seconds. When the chamber is lifted, the mouse is allowed up to 300 seconds to enter the escape box. […] […] The procedure for the memory trials is the same as learning, except the mice are allowed only one attempt to solve the maze each day. Data includes the time to solve, number of errors made, and distance traveled. Errors are defined as when a mouse poked more than three-quarters of its head into any hole other than the appropriate escape hole. Distance traveled is measured using ANY-MAZE software.

[3] = biological target: T1, α1D-AR (Homo sapiens, UniProt P25100); assay: Effect of compound on binding affinity of norepinephrine at α1D-AR; conditions: 10^−5M
T1 construct: expressed in transfected cells; host or cells: Rat-1 fibroblast cells
T1 sequence (P25100 1-572): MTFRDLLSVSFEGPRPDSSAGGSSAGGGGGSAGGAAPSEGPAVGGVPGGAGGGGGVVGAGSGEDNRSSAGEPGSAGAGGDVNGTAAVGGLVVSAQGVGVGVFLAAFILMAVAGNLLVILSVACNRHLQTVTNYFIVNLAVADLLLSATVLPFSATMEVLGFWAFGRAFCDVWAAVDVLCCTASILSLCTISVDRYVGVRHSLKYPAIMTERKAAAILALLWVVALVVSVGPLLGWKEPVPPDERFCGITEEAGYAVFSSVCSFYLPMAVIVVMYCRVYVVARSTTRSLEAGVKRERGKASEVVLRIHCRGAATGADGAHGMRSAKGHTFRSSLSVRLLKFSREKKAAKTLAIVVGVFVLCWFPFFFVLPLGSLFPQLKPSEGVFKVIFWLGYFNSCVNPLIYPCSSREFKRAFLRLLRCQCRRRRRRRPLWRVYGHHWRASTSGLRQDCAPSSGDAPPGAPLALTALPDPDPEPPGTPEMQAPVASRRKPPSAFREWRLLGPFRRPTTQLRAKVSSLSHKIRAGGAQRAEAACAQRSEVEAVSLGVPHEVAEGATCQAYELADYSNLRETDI
Method: Competition binding assays: These compounds were characterized for their ligand binding properties at the α1-AR subtypes. The binding affinities of Compounds 1-10 were determined in a series of competition-binding experiments with the α1-AR-selective antagonist [^125I]HEAT as the radioligand. Assays were performed in duplicate in HEM buffer, in a total assay volume of 1000 μl. Radioligand binding assays are composed of 5 ug of membranes, harvested from Rat-1 fibroblast cells expressing only one of the alpha1-AR subtypes, HEM buffer containing GTP (composed of 20 mM HEPES, pH 7.4, 1.4 mM EGTA, 12.5 mM MgCl2, pH to 7.4), 0.5 mM GTP, 35-80 pM^125I-HEAT, and various doses of norepinephrine or epinephrine and incubated with shaking at 25° C. for 1-2 hours. The above conditions will convert all the conformations of the receptor into a single low affinity site. To show both high and low affinity sites of the receptor (typically seen with GPCR agonists), the GTP is removed from the binding buffer. Nonspecific binding was determined experimentally in the presence of 10^−4 M phentolamine. Unbound radioactivity was separated from membrane-bound radioactivity by filtration through Whatman GF/C filter paper. […] Bound radioactivity remaining on the filters was counted on an ICN gamma counter operating at 79.8% efficiency. Data are analyzed using Graphpad Prism. […]

[4] = system: α2-ARs; assay: Radioligand binding at α2-ARs
Method: Characterization: Binding affinity. Using AR null stably-transfected cell lines that each express only one of the three individual α1-AR subtypes, compounds are characterized for their selectivity for the α1A-AR in radioligand binding studies. To be sure of no cross-reactivity, binding affinity against the α2-ARs and β-ARs are also measured. Details for such procedures are found generally at references 25-26, 94-98, all of which are herein incorporated by reference.

[5] = biological target: T1, α1D-AR; assay: Competition binding with [125I]HEAT at α1D-AR
Method: Competition binding assays: These compounds were characterized for their ligand binding properties at the α1-AR subtypes. The binding affinities of Compounds 1-10 were determined in a series of competition-binding experiments with the α1-AR-selective antagonist [^125I]HEAT as the radioligand. Assays were performed in duplicate in HEM buffer, in a total assay volume of 1000 μl. Radioligand binding assays are composed of 5 ug of membranes, harvested from Rat-1 fibroblast cells expressing only one of the alpha1-AR subtypes, HEM buffer containing GTP (composed of 20 mM HEPES, pH 7.4, 1.4 mM EGTA, 12.5 mM MgCl2, pH to 7.4), 0.5 mM GTP, 35-80 pM^125I-HEAT, and various doses of norepinephrine or epinephrine and incubated with shaking at 25° C. for 1-2 hours. The above conditions will convert all the conformations of the receptor into a single low affinity site. To show both high and low affinity sites of the receptor (typically seen with GPCR agonists), the GTP is removed from the binding buffer. Nonspecific binding was determined experimentally in the presence of 10^−4 M phentolamine. Unbound radioactivity was separated from membrane-bound radioactivity by filtration through Whatman GF/C filter paper. […] Bound radioactivity remaining on the filters was counted on an ICN gamma counter operating at 79.8% efficiency. Data are analyzed using Graphpad Prism.

[6] = Body weight of 3×TG AD mice; type: in vivo, mouse; conditions: female 3×TG mice
Method: as §1
At 12 months of age mice were subjected to long term potentiation (LTP) (FIG. 25).
It is known that females in the 3×TG AD mouse model have higher penetrance for the disease than males so an increase in body weight may be a general sign of better health. Weight loss and muscle loss are well-known symptoms associated with AD (91-93).

With CC(C)Cc1c(OCC2=NCCN2)cccc1N(C)S(C)(=O)=O [Compound 3, N-[3-(4,5-Dihydro-1H-imidazol-2-ylmethoxy)-2-isobutyl-phenyl]-N-methyl-methanesulfonamide] the “locomotion assessed by amount of active time” value [1] was “little effect on locomotion”, the “locomotion assessed by velocity” value [1] was “little effect on locomotion” and the “time to find the escape hole, day 5 memory test” value ([2]; AD mice, approached significance) was “decreased the time to find the escape hole”. For the same molecule, the “finding the correct escape hole (number of head pokes)” value ([2]; female AD mice, day 5 probe) was “increase the ability of female AD mice to find the correct escape hole”, the “latency to the escape hole during training period” value ([2]; male AD mice, 5 day training) was “significantly decrease the latency” and the “effect on affinity of norepinephrine at the α1D-AR” value [3] was “no effect; also recorded: does not increase the affinity of norepinephrine”. For the same molecule, the “interaction with α2-ARs” value [4] was “does not interact with high affinity”, the “specific binding at the α1D-AR” value [5] was “little, if any, specific binding; also recorded: no affinity” and the “body weight vs untreated” value [6] was “increased body weight; also recorded: retained or gained body weight”.
